According to patent US20250042922A1, “KRAS MODULATING COMPOUNDS” (priority 2023, published 2025):

Experiments:
GDP-loaded KRAS-G12D = GDP-loaded KRAS-G12D (Homo sapiens, UniProt P01116, G12D); experiment: KRAS (GDP) biochemical TR-FRET probe displacement assay, G12D; assay type: binding; conditions: 2 hours
Experimental: (§1) Compounds are tested for binding to GDP-loaded wild-type KRAS (WT), KRAS-G12C, KRAS-G12D, and KRAS-G12V in a 384-well assay format using a TR-FRET probe displacement assay in buffer consisting of 50 mM Hepes (pH 7.4), 150 mM NaCl, 5 mM MgCl2 and 0.005% Tween-20. […] Compounds are serially diluted (1:3) in DMSO. The LabCyte ECHO Acoustic dispenser was used to pre-spot the assay plates (384-well Non-Binding Surface plates, Corning, Catalog #3824) with 50 nL of compound. 5 μL of 2X enzyme concentration is added to the pre-spotted plates and incubated for 30 minutes before adding 5 μL of 2X concentration of Eu-streptavidin and Cy-5 labelled probe (10 μL final reaction volume). The plates are incubated at room temperature for 2 hours before measuring TR-FRET ratio (665 nm/615 nm) on the Envision multimode plate reader. The ratios are normalized to a positive (saturating concentration of known inhibitor) and negative (DMSO) control and plotted against the log of compound concentration.

GDP-loaded KRAS-G12V = GDP-loaded KRAS-G12V (Homo sapiens, UniProt P01116, G12V); experiment: KRAS (GDP) biochemical TR-FRET probe displacement assay, G12V; assay type: binding; conditions: 2 hours
Experimental: as §1

[1] = system: cellular pERK in Kuramochi (WT KRAS) cells; experiment: Cell based pERK assay, Kuramochi; conditions: Kuramochi (WT KRAS), 2 hours incubation, HTRF phospho-ERK1/2; read-out: Kuramochi pERK EC50
Experimental: (§2) Compounds were tested in a 384-well assay format for their ability to inhibit cellular pERK in Kuramochi (WT KRAS), MIA-PaCa-2 (KRAS-G12C), ASPC-1 (KRAS G12D), and NCI-H441 (KRAS-G12V) cell-lines. Compounds were serially diluted (1:3) in DMSO. On day −1, 80 μL of cells were plated per well in the 384 well tissue-culture plates (Greiner: Cat #781080) to seed 5000 cells per wells of AsPC-1 or 7500 cells of MIA-PaCa-2, NCI-H441, and Kuramochi cell lines in RPMI (Corning: Cat #10-040-CM) with 10% fetal bovine serum (FBS) (HyClone: Cat #SH30071-03) and 1× penicillin-streptomycin-glutamate (PSG) (Corning: Cat #30-009-CI) for […] and Kuramochi cell lines and DMEM (Corning: Cat #15-018-CM) with 10% FBS and 1×PSG for MIA-PaCa-2 cell line. The plates were then incubated overnight at 37° C. and 5% CO2. On day 0, 400 nL of compound/well was added into the cell plates and mixed 5 times by pipetting using a Beckmann Biomek FX. The cell plates were then incubated for 2 hours at 37° C. and 5% CO2. HTRF Advanced Phospho-ERK1/2 (THR202/TYR204) Detection Kits (PerkinElmer: Cat #64AERPEG) were used to prepare the lysis and detection solution according to manufacturer protocol. Following the 2 hour incubation, 70 μL of medium was aspirated from the plates and 10 uL of lysis and detection solution was added to the plates using a Biotek EL406 washer and dispenser. Plates were sealed and stored overnight at room temperature. HTRF ratio (665 nm/615 nm) was read by Envision multimode reader (PerkinElmer) the next day. The TR-FRET ratios were normalized to a positive (saturating concentration of known inhibitor) and negative (DMSO) control and plotted against the log of compound concentration.

GDP-loaded KRAS-G12C = GDP-loaded KRAS-G12C (Homo sapiens, UniProt P01116, G12C); experiment: KRAS (GDP) biochemical TR-FRET probe displacement assay, G12C; assay type: binding; conditions: 2 hours
Experimental: as §1

[2] = system: cellular pERK in MIA-PaCa-2 (KRAS-G12C) cells; experiment: Cell based pERK assay, MIA-PaCa-2; conditions: Homo sapiens; MIA-PaCa-2 (KRAS-G12C), 2 hours incubation, HTRF phospho-ERK1/2; read-out: MIAPaCa2 pERK EC50
Experimental: as §2

[3] = system: cellular pERK in ASPC-1 (KRAS G12D) cells; experiment: Cell based pERK assay, ASPC-1; conditions: Homo sapiens, ASPC1; ASPC-1 (KRAS G12D), 2 hours incubation, HTRF phospho-ERK1/2; read-out: AsPC1 pERK EC50
Experimental: as §2

[4] = target: GDP-loaded wild-type KRAS (WT) (Homo sapiens, UniProt P01116); experiment: KRAS (GDP) biochemical TR-FRET probe displacement assay, WT; assay type: binding; conditions: 2 hours
Experimental: as §1

[5] = system: cellular pERK in NCI-H441 (KRAS-G12V) cells; experiment: Cell based pERK assay, NCI-H441; conditions: Homo sapiens; NCI-H441 (KRAS-G12V), 2 hours incubation, HTRF phospho-ERK1/2; read-out: H441 PERK EC50
Experimental: as §2

GDP-loaded KRAS-G12V, sequence (P01116 1-188 isoform P01116-2 G12V): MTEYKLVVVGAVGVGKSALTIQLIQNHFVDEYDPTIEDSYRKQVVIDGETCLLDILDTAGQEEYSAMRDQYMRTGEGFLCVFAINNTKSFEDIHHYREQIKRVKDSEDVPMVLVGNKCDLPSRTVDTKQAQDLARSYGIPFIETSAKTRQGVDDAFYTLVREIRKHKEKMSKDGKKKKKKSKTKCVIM
GDP-loaded wild-type KRAS (WT), sequence (P01116 1-188 isoform P01116-2): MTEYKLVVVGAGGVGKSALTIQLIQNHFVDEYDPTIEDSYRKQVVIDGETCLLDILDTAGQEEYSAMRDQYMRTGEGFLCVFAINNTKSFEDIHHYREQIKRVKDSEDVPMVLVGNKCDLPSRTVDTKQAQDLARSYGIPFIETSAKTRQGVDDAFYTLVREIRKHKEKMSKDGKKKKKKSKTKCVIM
GDP-loaded KRAS-G12C, sequence (P01116 1-188 isoform P01116-2 G12C): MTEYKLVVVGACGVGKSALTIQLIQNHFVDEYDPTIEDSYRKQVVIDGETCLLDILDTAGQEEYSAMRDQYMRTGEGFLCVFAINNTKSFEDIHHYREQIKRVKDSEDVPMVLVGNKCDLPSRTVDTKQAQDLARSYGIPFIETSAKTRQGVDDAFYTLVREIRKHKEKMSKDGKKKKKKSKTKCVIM
GDP-loaded KRAS-G12D, sequence (P01116 1-188 isoform P01116-2 G12D): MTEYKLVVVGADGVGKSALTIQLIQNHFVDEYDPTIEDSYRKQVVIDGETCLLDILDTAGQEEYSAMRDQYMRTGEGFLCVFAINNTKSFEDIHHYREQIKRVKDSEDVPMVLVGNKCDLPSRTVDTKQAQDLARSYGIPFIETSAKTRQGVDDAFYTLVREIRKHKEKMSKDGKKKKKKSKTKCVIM

SMILES | IC50 (GDP-loaded KRAS-G12D) | IC50 (GDP-loaded KRAS-G12V) | EC50 [1] | IC50 (GDP-loaded KRAS-G12C) | EC50 [2] | EC50 [3] | IC50 [4] | EC50 [5]
N#Cc1c(N)sc2c(F)ccc(-c3nc4c5c(nc(OCC67CCCN6CCC7)nc5c3F)N3C[C@@]5(F)CC[C@](F)(N5)[C@H]3CCC4)c12 [Example 4-7, 2-amino-7-fluoro-4-((6aR,7R,10S)-1,7,10-trifluoro-13-((tetrahydro-1H-pyrrolizin-7a(5H)-yl)methoxy)-5,6,6a,7,8,9,10,11-octahydro-4H-3,11a,12,14,15-pentaaza-7,10-methanocyclohepta[4,5]cycloocta[1,2,3-de]naphthalen-2-yl)benzo[b]thiophene-3-carbonitrile] | 86.8 nM | 44.1 nM | 15.6 nM | 28.5 nM | 59.8 nM | 840 nM | 10.1 nM | –
C#Cc1c(F)ccc2cc(N)cc(-c3nc4c5c(nc(OC[C@@H]6CCCN6C)nc5c3F)N3C[C@@]5(F)CC[C@](F)(N5)[C@H]3CCC4)c12 [Example 4-8, 5-ethynyl-6-fluoro-4-((6aR,7R,10S)-1,7,10-trifluoro-13-(((S)-1-methylpyrrolidin-2-yl)methoxy)-5,6,6a,7,8,9,10,11-octahydro-4H-3,11a,12,14,15-pentaaza-7,10-methanocyclohepta[4,5]cycloocta[1,2,3-de]naphthalen-2-yl)naphthalen-2-amine] | 57.8 nM | 34.7 nM | 5.11 nM | 13.2 nM | 6.73 nM | 169 nM | 6.19 nM | –
C[C@H]1Cc2nc(-c3cc(N)cc(Cl)c3C(F)(F)F)c(F)c3nc(OCC45CCCN4CCC5)nc(c23)N2C[C@@]3(F)CC[C@](F)(N3)[C@H]12 [Example 4-17, 3-chloro-5-((8S,8aS,9R,12S)-4,9,12-trifluoro-8-methyl-2-((tetrahydro-1H-pyrrolizin-7a(5H)-yl)methoxy)-7,8,8a,9,10,11,12,13-octahydro-1,3,6,13a,14-pentaaza-9,12-methanonaphtho[1,8-ab]heptalen-5-yl)-4-(trifluoromethyl)aniline] | 2.79 nM | 0.865 nM | 4.32 nM | 0.479 nM | 1.72 nM | 38 nM | 0.161 nM | –
CCC1CCCc2cc(N)cc(-c3nc4c5c(nc(OCC67CCCN6CCC7)nc5c3F)N3C[C@@]5(F)CC[C@](F)(N5)[C@H]3CCC4)c21 (stereo partly drawn) [Example 4-24, 5-ethyl-4-((6aR,7R,10S)-1,7,10-trifluoro-13-((tetrahydro-1H-pyrrolizin-7a(5H)-yl)methoxy)-5,6,6a,7,8,9,10,11-octahydro-4H-3,11a,12,14,15-pentaaza-7,10-methanocyclohepta[4,5]cycloocta[1,2,3-de]naphthalen-2-yl)-5,6,7,8-tetrahydronaphthalen-2-amine] | > 100 nM | > 100 nM | 312 nM | > 100 nM | 560 nM | > 1000 nM | > 100 nM | –
C#Cc1c(F)ccc2cc(N)cc(-c3nc4c5c(nc(OC[C@@]67CCCN6[C@H](COC(C(F)(F)F)(C(F)(F)F)C(F)(F)F)CC7)nc5c3F)N3C[C@@]5(F)CC[C@](F)(N5)[C@H]3CCC4)c12 [Example 4-28, 5-ethynyl-6-fluoro-4-((6aR,7R,10S)-1,7,10-trifluoro-13-(((3S,7aS)-3-(((1,1,1,3,3,3-hexafluoro-2-(trifluoromethyl)propan-2-yl)oxy)methyl)tetrahydro-1H-pyrrolizin-7a(5H)-yl)methoxy)-5,6,6a,7,8,9,10,11-octahydro-4H-3,11a,12,14,15-pentaaza-7,10-methanocyclohepta[4,5]cycloocta[1,2,3-de]naphthalen-2-yl)naphthalen-2-amine] | 59.4 nM | 44.8 nM | 7.5 nM | 7.3 nM | 5.6 nM | 117 nM | 4.98 nM | –
C#Cc1c(F)ccc2cccc(-c3nc4c5c(nc(OCC67CCCN6CCC7)nc5c3F)N3C[C@@]5(F)CC[C@](F)(N5)[C@H]3CCC4)c12 [Example 4-29, (6aR,7R,10S)-2-(8-ethynyl-7-fluoronaphthalen-1-yl)-1,7,10-trifluoro-13-((tetrahydro-1H-pyrrolizin-7a(5H)-yl)methoxy)-5,6,6a,7,8,9,10,11-octahydro-4H-3,11a,12,14,15-pentaaza-7,10-methanocyclohepta[4,5]cycloocta[1,2,3-de]naphthalene] | 38.1 nM | 24.8 nM | 6.37 nM | 8.68 nM | 12.8 nM | 305 nM | 5.99 nM | –
C#Cc1c(F)ccc2cc(N)cc(-c3nc4c5c(nc(OC[C@]6(C)CN(C)CC/C6=C\F)nc5c3F)N3C[C@@]5(F)CC[C@](F)(N5)[C@@H]3[C@@H](C)C4)c12 [Example 4-39, 5-ethynyl-6-fluoro-4-((5S,5aS,6R,9S)-1,6,9-trifluoro-12-(((S,E)-4-(fluoromethylene)-1,3-dimethylpiperidin-3-yl)methoxy)-5-methyl-4,5,5a,6,7,8,9,10-octahydro-3,10a,11,13,14-pentaaza-6,9methanonaphtho[1,8-ab]heptalen-2-yl)naphthalen-2-amine] | 1.12 nM | 0.583 nM | 3.76 nM | 0.383 nM | 0.253 nM | 6.04 nM | – | 0.689 nM
C#Cc1c(F)ccc2cc(N)cc(-c3nc4c5c(nc(OC[C@@]67CCCN6CC(=C)C7)nc5c3F)N3C[C@@]5(F)CC[C@](F)(N5)[C@@H]3[C@@H](C)C4)c12 [Example 4-40, 5-ethynyl-6-fluoro-4-((5S,5aS,6R,9S)-1,6,9-trifluoro-5-methyl-12-(((S)-2-methylenetetrahydro-1H-pyrrolizin-7a(5H)-yl)methoxy)-4,5,5a,6,7,8,9,10-octahydro-3,10a,11,13,14-pentaaza-6,9-methanonaphtho[1,8-ab]heptalen-2-yl)naphthalen-2-amine] | – | – | 1.65 nM | – | 0.067 nM | 0.71 nM | – | 0.38 nM
Nc1cc(-c2nc3c4c(nc(OCC56CCCN5CCC6)nc4c2F)N2C[C@@]4(F)CC[C@](F)(N4)[C@H]2CCC3)c2c(F)c(F)ccc2c1 [Example 5-4, 5,6-difluoro-4-[(4S,7R,8R)-4,7,15-trifluoro-18-(1,2,3,5,6,7-hexahydropyrrolizin-8-ylmethoxy)-2,13,17,19,21-pentazapentacyclo[10.7.1.14,7.02,8.016,20]henicosa-1(19),12(20),13,15,17-pentaen-14-yl]naphthalen-2-amine] | – | – | 5.01 nM | – | 28.7 nM | 416 nM | – | 104 nM
CCc1c(F)ccc2cc(O)cc(-c3nc4c5c(nc(OCC67CCCN6CCC7)nc5c3F)N3C[C@@]5(F)CC[C@](F)(N5)[C@H]3CCC4)c12 [Example 6-1, 5-ethyl-6-fluoro-4-((6aR,7R,10S)-1,7,10-trifluoro-13-((tetrahydro-1H-pyrrolizin-7a(5H)-yl)methoxy)-5,6,6a,7,8,9,10,11-octahydro-4H-3,11a,12,14,15-pentaaza-7,10-methanocyclohepta[4,5]cycloocta[1,2,3-de]naphthalen-2-yl)naphthalen-2-ol] | – | – | 3.55 nM | – | 1.52 nM | 31.8 nM | – | 19.4 nM
